Results: PubChem BioAssay (NCI)
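Five concentrations, 48 hours, 96-well plates. TGI marks complete inhibition of growth.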

How the values were obtained:
Experiment in all cases: DTP human tumour cell line panel, 48 h
[1] = system: BT-549 breast
[2] = system: CAKI-1 renal
[3] = system: CCRF-CEM leukemia
[4] = system: COLO 205 colon
[5] = system: DU-145 prostate
[6] = system: HCC-2998 colon
[7] = system: HCT-116 colon
[8] = system: HCT-15 colon
[9] = system: HL-60(TB) leukemia
[10] = system: HOP-62 NSCLC
[11] = system: HOP-92 NSCLC
[12] = system: HS 578T breast
[13] = system: HT29 colon
[14] = system: IGROV1 ovarian
[15] = system: K-562 leukemia
[16] = system: KM12 colon
[17] = system: LOX IMVI melanoma
[18] = system: M14 melanoma
[19] = system: MALME-3M melanoma
[20] = system: MCF7 breast
[21] = system: MDA-MB-231 breast
[22] = system: MDA-MB-435
[23] = system: MDA-N
[24] = system: MOLT-4 leukemia
[25] = system: NCI-H226 lung
[26] = system: NCI-H23 lung
[27] = system: NCI-H460 lung
[28] = system: NCI/ADR-RES ovarian
[29] = system: OVCAR-3 ovarian
[30] = system: OVCAR-4 ovarian
[31] = system: OVCAR-5 ovarian
[32] = system: OVCAR-8 ovarian
[33] = system: PC-3 prostate
[34] = system: RPMI-8226 leukemia
[35] = system: RXF 393 renal
[36] = system: SF-295 CNS
[37] = system: SK-MEL-2 melanoma
[38] = system: SK-MEL-28 melanoma
[39] = system: SK-MEL-5 melanoma
[40] = system: SK-OV-3 ovarian
[41] = system: SN12C renal
[42] = system: SNB-75 CNS
[43] = system: SR leukemia
[44] = system: SW-620 colon
[45] = system: T-47D breast
[46] = system: TK-10 renal
[47] = system: U251 CNS
[48] = system: UACC-257 melanoma
[49] = system: UACC-62 melanoma
[50] = system: UO-31 renal
[51] = system: 786-0 renal
[52] = system: A549 NSCLC
[53] = system: ACHN renal
[54] = system: EKVX NSCLC
[55] = system: NCI-H522 lung
[56] = system: SF-268 CNS
[57] = system: SF-539 CNS
[58] = system: SNB-19 CNS

## C[C@@H]1CC[C@H]2[C@H]1[C@H]1[C@@H](CC[C@]2(C)N=C=S)C1(C)C
[1]
  TGI: 39.1 µM
[2]
  TGI: 92.4 µM
[3]
  TGI: 30.9 µM
[4]
  TGI: 33.3 µM
[5]
  TGI: 49.6 µM
[6]
  TGI: 83.4 µM
[7]
  TGI: 31.7 µM
[8]
  TGI: 64.6 µM
[9]
  TGI: 54.3 µM
[10]
  TGI: > 100 µM
[11]
  TGI: 84.7 µM
[12]
  TGI: > 100 µM
[13]
  TGI: 52.7 µM
[14]
  TGI: > 100 µM
[15]
  TGI: 35.7 µM
[16]
  TGI: 40 µM
[17]
  TGI: > 100 µM
[18]
  TGI: 78.1 µM
[19]
  TGI: 52.8 µM
[20]
  TGI: 34 µM
[21]
  TGI: 52.7 µM
[22]
  TGI: 96.6 µM
[23]
  TGI: 23.4 µM
[24]
  TGI: 32.5 µM
[25]
  TGI: 38.8 µM
[26]
  TGI: 94.3 µM
[27]
  TGI: 47.3 µM
[28]
  TGI: 43.9 µM
[29]
  TGI: 42.9 µM
[30]
  TGI: > 100 µM
[31]
  TGI: > 100 µM
[32]
  TGI: > 100 µM
[33]
  TGI: > 100 µM
[34]
  TGI: 43.4 µM
[35]
  TGI: 30.5 µM
[36]
  TGI: 46.9 µM
[37]
  TGI: 43.9 µM
[38]
  TGI: 49.7 µM
[39]
  TGI: 31.8 µM
[40]
  TGI: > 100 µM
[41]
  TGI: 44.7 µM
[42]
  TGI: > 100 µM
[43]
  TGI: 47 µM
[44]
  TGI: 36 µM
[45]
  TGI: > 100 µM
[46]
  TGI: > 100 µM
[47]
  TGI: 30.5 µM
[48]
  TGI: 67.4 µM
[49]
  TGI: 42.6 µM
[50]
  TGI: > 100 µM

## COC(=O)c1ccccc1CC1Cc2cccc(C)c2C1=O (stereo not given)
[51]
  TGI: > 100 µM
[52]
  TGI: > 100 µM
[53]
  TGI: > 100 µM
[1]
  TGI: > 100 µM
[2]
  TGI: > 100 µM
[3]
  TGI: > 100 µM
[4]
  TGI: 39.3 µM
[5]
  TGI: > 100 µM
[54]
  TGI: 41.9 µM
[6]
  TGI: > 100 µM
[7]
  TGI: > 100 µM
[8]
  TGI: 73.3 µM
[10]
  TGI: > 100 µM
[11]
  TGI: 80.6 µM
[12]
  TGI: > 100 µM
[13]
  TGI: 58.3 µM
[14]
  TGI: > 100 µM
[15]
  TGI: 68.4 µM
[16]
  TGI: 66.6 µM
[17]
  TGI: 39.6 µM
[18]
  TGI: > 100 µM
[19]
  TGI: 48.3 µM
[20]
  TGI: 56.1 µM
[21]
  TGI: > 100 µM
[22]
  TGI: 50.8 µM
[23]
  TGI: > 100 µM
[24]
  TGI: 51.2 µM
[25]
  TGI: 71.5 µM
[26]
  TGI: > 100 µM
[27]
  TGI: > 100 µM
[55]
  TGI: 57.2 µM
[28]
  TGI: > 100 µM
[29]
  TGI: > 100 µM
[30]
  TGI: > 100 µM
[31]
  TGI: > 100 µM
[32]
  TGI: > 100 µM
[33]
  TGI: 77.8 µM
[35]
  TGI: 63.7 µM
[56]
  TGI: > 100 µM
[36]
  TGI: > 100 µM
[57]
  TGI: > 100 µM
[37]
  TGI: 53.2 µM
[38]
  TGI: 94.5 µM
[39]
  TGI: 37.5 µM
[40]
  TGI: > 100 µM
[41]
  TGI: > 100 µM
[58]
  TGI: > 100 µM
[42]
  TGI: 86.8 µM
[44]
  TGI: > 100 µM
[45]
  TGI: 82.7 µM
[46]
  TGI: 71.1 µM
[47]
  TGI: > 100 µM
[48]
  TGI: 73.3 µM
[49]
  TGI: 98.1 µM
[50]
  TGI: 67.2 µM
